Data as given in patent publication US10399980B2, “Purinones as ubiquitin-specific protease 1 inhibitors” (FORMA Therapeutics, Inc., priority 2015, dated 2019).

These molecules were tested against USP1, construct USP1 (1-785, GG670, 671AA)/UAF1 (1-677)-Flag (Homo sapiens (Human), UniProt O94782, G670A/G671A) (assay: Ubiquitin-Rhodamine 110 assay for USP1 activity, follow-up IC50 studies). Conditions: USP1/UAF1, 30 min preincubation.
Type: biochemical
Description: Example 53: Ubitquin-Rhodamine 110 Assay for USP1 Activity
Nanoliter quantities of either an 8-point or 10-point, 3-fold serial dilution in DMSO was pre-dispensed into assay plates (Perkin Elmer, ProxiPlate-384 F Plus, #6008269) for a final test concentration range of either 25 μM to 11 nM or 25 μM to 1.3 nM, respectively. The final concentration of the enzyme (USP1, construct USP1 (1-785, GG670, 671AA)/UAF1 (1-677)-Flag; Viva) in the assay was 25 pM. Final substrate (Ub-Rh110; Ubiquitin-Rhodamine 110, R&D Systems #U-555) concentration was 25 nM with [Ub-Rh110]<<Km. […] Plates were incubated stacked for 20 minutes at room temperature before 5 μL of stop solution (final concentration of 10 mM citric acid in assay buffer (Sigma, #251275-500G)). Fluorescence was read on the Envision (Excitation at 485 nm and Emission at 535 nm; Perkin Elmer) or on the PheraSTAR (Excitation at 485 nm and Emission at 535 nm; BMG Labtech).
For both assay formats data were reported as percent inhibition compared with control wells based on the following equation: % inh=[1−((FLU−AveLow)/(AveHigh−AveLow))]×100 where FLU=measured Fluorescence, AveLow=average Fluorescence of no enzyme control (n=16), and AveHigh=average Fluorescence of DMSO control (n=16). IC50 values were determined by curve fitting of the standard 4 parameter logistic fitting algorithm included in the Activity Base software package: IDBS XE Designer Model205. Data is fitted using the Levenburg Marquardt algorithm.

Sequence of USP1, construct USP1 (1-785, GG670, 671AA)/UAF1 (1-677)-Flag (O94782 whole entry G670A/G671A): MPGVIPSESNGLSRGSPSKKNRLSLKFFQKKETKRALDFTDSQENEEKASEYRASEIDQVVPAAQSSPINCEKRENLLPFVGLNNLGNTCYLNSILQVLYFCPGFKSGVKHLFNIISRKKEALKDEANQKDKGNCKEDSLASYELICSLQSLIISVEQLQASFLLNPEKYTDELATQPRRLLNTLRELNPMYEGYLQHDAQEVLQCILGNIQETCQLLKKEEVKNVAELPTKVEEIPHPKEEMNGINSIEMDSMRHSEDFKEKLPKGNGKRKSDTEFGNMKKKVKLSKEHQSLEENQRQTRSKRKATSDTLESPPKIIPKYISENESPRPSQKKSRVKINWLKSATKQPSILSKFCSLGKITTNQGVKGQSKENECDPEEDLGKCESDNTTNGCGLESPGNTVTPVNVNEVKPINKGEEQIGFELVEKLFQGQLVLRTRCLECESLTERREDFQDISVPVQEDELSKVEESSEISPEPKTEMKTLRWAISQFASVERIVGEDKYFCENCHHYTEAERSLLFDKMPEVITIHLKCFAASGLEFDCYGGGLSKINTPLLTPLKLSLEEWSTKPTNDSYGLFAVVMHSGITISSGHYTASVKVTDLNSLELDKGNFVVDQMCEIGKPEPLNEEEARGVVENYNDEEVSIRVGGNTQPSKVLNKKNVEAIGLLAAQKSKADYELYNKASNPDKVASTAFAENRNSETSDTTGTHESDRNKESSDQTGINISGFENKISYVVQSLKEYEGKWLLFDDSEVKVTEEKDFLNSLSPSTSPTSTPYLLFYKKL
Sequence of USP1, construct USP1 (1-785, GG670, 671AA)/UAF1 (1-677)-Flag (Q8TAF3 whole entry partner): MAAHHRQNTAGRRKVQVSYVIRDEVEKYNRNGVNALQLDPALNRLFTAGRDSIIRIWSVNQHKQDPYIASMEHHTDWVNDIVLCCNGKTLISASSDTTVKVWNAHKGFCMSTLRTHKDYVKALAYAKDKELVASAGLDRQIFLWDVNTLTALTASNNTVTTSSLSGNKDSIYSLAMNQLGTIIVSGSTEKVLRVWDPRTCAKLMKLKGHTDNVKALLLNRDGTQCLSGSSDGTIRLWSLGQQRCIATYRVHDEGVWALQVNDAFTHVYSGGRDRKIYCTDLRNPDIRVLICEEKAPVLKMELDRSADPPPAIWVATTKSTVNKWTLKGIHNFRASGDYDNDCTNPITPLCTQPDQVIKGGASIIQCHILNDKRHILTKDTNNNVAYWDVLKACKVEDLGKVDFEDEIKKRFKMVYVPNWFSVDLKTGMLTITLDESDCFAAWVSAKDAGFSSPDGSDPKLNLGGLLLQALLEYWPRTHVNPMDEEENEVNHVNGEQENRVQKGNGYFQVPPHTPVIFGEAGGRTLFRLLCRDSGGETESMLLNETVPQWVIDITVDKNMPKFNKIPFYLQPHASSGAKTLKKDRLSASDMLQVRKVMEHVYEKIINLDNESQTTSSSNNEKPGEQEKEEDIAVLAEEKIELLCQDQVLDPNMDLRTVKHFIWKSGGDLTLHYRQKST

Compared with Cn1cc(C(F)(F)F)nc1-c1ccc(Cn2c(=O)n(C)c3cnc(-c4ccccc4C4CC4)nc32)cc1 [I-70, 2-(2-cyclopropylphenyl)-7-methyl-9-(4-(1-methyl-4-(trifluoromethyl)-1H-imidazol-2-yl)benzyl)-7,9-dihydro-8H-purin-8-one], Cc1cc(C)n([C@H]2CC[C@@H](Cn3c(=O)n(C)c4cnc(-c5ccccc5C(C)C)nc43)CC2)n1 [I-111, 9-(((1s,4s)-4-(3,5-dimethyl-1H-pyrazol-1-yl)cyclohexyl)methyl)-2-(2-isopropylphenyl)-7-methyl-7,9-dihydro-8H-purin-8-one] is higher in IC50: < 50 nM for the first, 50 to 200 nM for the second.

In the case of Cc1cc(C)n([C@H]2CC[C@H](Cn3c(=O)[nH]c4cnc(-c5ccccc5C(C)C)nc43)CC2)n1 [I-213, 9-(((1r,4r)-4-(3,5-dimethyl-1H-pyrazol-1-yl)cyclohexyl)methyl)-2-(2-isopropylphenyl)-7,9-dihydro-8H-purin-8-one], the IC50 is reported as 200 to 2000 nM.
